Source: US20250332080A1, “Skin Cell Energy Booster Composition” (CarboCode S.A., priority 2022, published 2025)

System: Reconstructed Human Epidermis (RHE)
Experiment: Proteomic (LC-MS/MS) analysis of Reconstructed Human Epidermis treated topically with ceramide in base emulsion
Type: cell-based
Details: topical 24 h, 0.01%, 0.03%, 0.15% ceramide in vehicle vs vehicle
Source text: FIGS. 1 to 3 show heatmaps using a log 2 scale with up- or downregulation of respective proteins upon treatment with 0.01% (01), 0.03% (03) and 0.15% (15) of respective ceramide in vehicle as compared to vehicle without ceramide (VEH) (FIG. 1: GlcCerNS, FIG. 2: LacCerNS, FIG. 3: CerNG); detailed experimental setup explained in Example 1.
Material and methods: Reconstructed Human Epidermis (RHE) cell culture was used, as this system mimics the in vivo 3D structure of epidermal tissue as well as the conditions and processes that occur in normal epidermis. RHE were cultured using the medium provided by the manufacturer until analysis. RHE were maintained in survival for 24 hours, before RHE were topically treated with lipid in a base emulsion for 24 h. 3 RHE were treated with base emulsion alone and 3 more remained untreated as a control batch (Ctrl). RHE were incubated under classical cell culture conditions (37° C., 5% CO2).
Sample preparation and LC-MS/MS analysis: Protein was extracted using the Pierce Total Protein Extraction Kit (Thermo Fisher) according to manufacturer's recommendations. The protein was mixed with Laemmli buffer and heated to 37° C. for 30 min. Protein concentration was determined by the BCA method and standardized for all samples. The samples were separated by SDS-PAGE and digested with trypsin overnight. The peptides generated were acidified and separated. The mass spectra were queried using Proteome Discoverer (version 2.5). The resulting MS/MS data were queried against the Homo sapiens proteome UP000005640 (20371 reviewed entries). Results were filtered based on unique peptides>2, and global peptide scores. Analyses were performed using Proteome Discoverer 2.5 to check for overall sample quality.
Bioinformatics and statistical analysis: Proteomic analysis returned a mean total of 34961 high-quality peptides corresponding to a mean 2422 identifiable and quantifiable RHE proteins among conditions. Proteins with a p-value<0.05 in at least one of the concentrations tested for a lipid were considered significant and used for pairwise comparisons. Relevant proteins were classified by their biological processes and associated pathways using the publicly available gene ontology (GO) database provided by the Gene Ontology Consortium and Reactome. Interactome analysis was performed using Cytoscape combined with STRING.

| NAD-dependent malic enzyme (mitochondrial) protein level | NADH dehydrogenase [ubiquinone]1 alpha subcomplex subunit 8 protein level | NADH dehydrogenase [ubiquinone]iron-sulfur protein 2 (mitochondrial) protein level | cytochrome c oxidase subunit 6C protein level | phosphomevalonate kinase protein level | cytochrome c oxidase subunit 2 protein level | cytochrome c oxidase subunit NDUFA4 protein level | Substance | ATP synthase subunit delta (mitochondrial) protein level | ATP synthase subunit g (mitochondrial) protein level | ATP-dependent zinc metalloprotease YME1L1 protein level | cytochrome b-c1 complex subunit 9 protein level |
| --- | --- | --- | --- | --- | --- | --- | --- | --- | --- | --- | --- |
| upregulation | upregulation | upregulation | upregulation | upregulation |  |  | Glucosyl ceramide [GlcCer] | upregulation | upregulation | upregulation |  |
|  |  |  | upregulation | upregulation |  |  | ceramide NG | upregulation | upregulation |  |  |
| upregulation |  |  | upregulation | upregulation | upregulation | upregulation | lactosyl ceramide | upregulation | upregulation | upregulation | upregulation |
